We go through 13 compounds from ChEMBL document CHEMBL4390644, “Synthesis, structure-activity relationship studies and biological characterization of new [1,2,4]triazolo[1,5-a]pyrimidine-based LSD1/KDM1A inhibitors” (Eur J Med Chem, 2019).

In data set [1] the target is T1, Lysine-specific histone demethylase 1A (Homo sapiens, UniProt O60341). The data set can be described thus: Inhibition of recombinant LSD1 (unknown origin) expressed in Escherichia coli BL21(DE) using H3K4me2 substrate by amplex red and horseradish peroxidase based fluorescence assay.
The nature of data set [2]: Antioxidant activity assessed as hydrogen peroxide scavenging activity at 10 uM incubated for 30 mins by ferrous ion oxidation-xylenol orange based method. The data set is classed as functional.
Data set [3] concerns the target T2, MAO-A (Homo sapiens, UniProt P21397).
T2 sequence (P21397 whole entry): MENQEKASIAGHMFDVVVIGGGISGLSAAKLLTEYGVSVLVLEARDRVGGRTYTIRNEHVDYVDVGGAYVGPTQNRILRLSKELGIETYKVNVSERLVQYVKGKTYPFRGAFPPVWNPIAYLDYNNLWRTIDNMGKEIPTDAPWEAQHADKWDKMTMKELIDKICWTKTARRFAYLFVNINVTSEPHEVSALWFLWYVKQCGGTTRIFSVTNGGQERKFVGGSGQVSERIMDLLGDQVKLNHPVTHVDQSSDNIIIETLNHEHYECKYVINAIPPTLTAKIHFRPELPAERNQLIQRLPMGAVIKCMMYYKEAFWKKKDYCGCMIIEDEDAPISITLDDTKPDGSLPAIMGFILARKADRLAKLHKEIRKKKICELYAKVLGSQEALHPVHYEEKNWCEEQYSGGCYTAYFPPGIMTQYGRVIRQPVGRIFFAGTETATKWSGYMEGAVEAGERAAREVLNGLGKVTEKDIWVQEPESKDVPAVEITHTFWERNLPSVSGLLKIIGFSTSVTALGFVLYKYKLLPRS
The data set can be described thus: Inhibition of N-terminal FLAG-tagged full length recombinant human MAO-A expressed in Sf9 cells at 10 uM using luciferin derived luminogenic substrate preincubated for 15 mins followed by substrate addition and measured after 60 mins by MAO-Glo assay relative to control. The settings on record: probe luciferin derived luminogenic substrate.

Data set [4] deals with T2, MAO-A. In words: Inhibition of N-terminal FLAG-tagged full length recombinant human MAO-A expressed in Sf9 cells at 1 uM using luciferin derived luminogenic substrate preincubated for 15 mins followed by substrate addition and measured after 60 mins by MAO-Glo assay relative to control. The conditions noted are these: probe luciferin derived luminogenic substrate.
The target of data set [5] is T3, MAO-B (Homo sapiens, UniProt P27338).
T3 sequence (P27338 whole entry): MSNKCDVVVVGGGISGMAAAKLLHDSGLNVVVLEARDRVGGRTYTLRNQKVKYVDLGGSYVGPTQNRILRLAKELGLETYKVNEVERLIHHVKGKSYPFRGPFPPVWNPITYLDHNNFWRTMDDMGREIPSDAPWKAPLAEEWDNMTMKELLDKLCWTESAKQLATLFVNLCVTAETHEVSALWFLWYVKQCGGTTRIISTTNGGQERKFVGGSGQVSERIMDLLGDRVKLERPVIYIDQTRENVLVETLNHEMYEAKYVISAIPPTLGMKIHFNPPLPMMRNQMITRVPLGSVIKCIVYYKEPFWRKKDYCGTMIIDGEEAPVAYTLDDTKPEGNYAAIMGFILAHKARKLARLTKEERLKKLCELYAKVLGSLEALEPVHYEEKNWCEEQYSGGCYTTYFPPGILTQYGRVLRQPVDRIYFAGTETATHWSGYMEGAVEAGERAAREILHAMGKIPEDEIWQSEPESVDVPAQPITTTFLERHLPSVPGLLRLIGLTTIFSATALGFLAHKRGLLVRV
The data set can be described thus: Inhibition of N-terminal FLAG-tagged full length recombinant human MAO-B expressed in Sf9 cells at 10 uM using luciferin derived luminogenic substrate preincubated for 15 mins followed by substrate addition and measured after 60 mins by MAO-Glo assay relative to control. The settings on record: probe luciferin derived luminogenic substrate.

Data set [6] concerns the target T3, MAO-B. The data set can be described thus: Inhibition of N-terminal FLAG-tagged full length recombinant human MAO-B expressed in Sf9 cells at 1 uM using luciferin derived luminogenic substrate preincubated for 15 mins followed by substrate addition and measured after 60 mins by MAO-Glo assay relative to control. The conditions noted are these: probe luciferin derived luminogenic substrate.

The test system of data set [7] is A549. The data set can be described thus: Antiproliferative activity against human A549 cells assessed as reduction in cell viability measured after 72 hrs by MTT based method. The settings on record: A549, 72 h.
Data set [8] deals with A549. In words: Effect on LSD1 expression in human A549 cells up to 16 uM after 96 hrs by Western blot analysis. The data set is classed as functional, cell-based. (Immunoblotting shows a protein as a band on a membrane.)
For data set [9], the system named is A549. In words: Down regulation of snail levels in human A549 cells up to 16 uM after 96 hrs by Western blot analysis. In kind it is functional, cell-based.
In data set [10] the test system is A549. The data set can be described thus: Down regulation of N-cadherin levels in human A549 cells up to 16 uM after 96 hrs by Western blot analysis. The data set is classed as functional, cell-based.
Data set [11] deals with A549. The data set can be described thus: Down regulation of slug levels in human A549 cells up to 16 uM after 96 hrs by Western blot analysis. The data set is classed as functional, cell-based.
Data set [12] has as its system A549. In words: Up regulation of claudin-1 levels in human A549 cells up to 16 uM after 96 hrs by Western blot analysis. In kind it is functional, cell-based.
For data set [13], the system named is A549. In words: Up regulation of E-cadherin levels in human A549 cells up to 16 uM after 96 hrs by Western blot analysis. The data set is classed as functional, cell-based.
The subject of the next data set is Armoracia rusticana. The conditions noted are these: 10 uM.
The subject of data set [14] is A549. The settings on record: Homo sapiens, 16 uM.
Description: Antimigratory activity in human A549 cells at 16 uM after 48 hrs by Hoechst 33258 staining based transwell assay
In data set [15] the target is T1, Lysine-specific histone demethylase 1A. The data set can be described thus: Binding affinity to LSD1 in human A549 cells assessed as increase in stability of cellular LSD1 protein at 10 uM pre-incubated for 1 hr followed by heating at 49 degC for 3 mins by Western blot-based CESTA. The data set is classed as cell-based.
The target is the same in data set [16]. In words: Binding affinity to LSD1 in human A549 cells assessed as increase in stability of cellular LSD1 protein at 10 uM pre-incubated for 1 hr followed by heating at 52 degC for 3 mins by Western blot-based CESTA. In kind it is cell-based.
The test system of data set [17] is A549. The data set can be described thus: Antiproliferative activity against human A549 cells assessed as reduction in cell viability at 1.25 to 100 uM measured after 72 hrs by MTT based method. In kind it is functional. In general terms: Formazan colour is commonly taken as a measure of viable cells.
Data set [18] has as its target T1, Lysine-specific histone demethylase 1A. The data set can be described thus: Binding affinity to LSD1 in human A549 cells assessed as increase in stability of cellular LSD1 protein at 10 to 20 uM pre-incubated for 1 hr followed by heating at 46 and 52 degC for 3 mins by Western blot-based CESTA. In kind it is cell-based.
For data set [19] the target is unchanged. In words: Inhibition of LSD1 in human A549 cells assessed as accumulation of H3K4me1 at 8 to 16 uM after 96 hrs by Western blot analysis. The data set is classed as cell-based.
Data set [20] has the same target. The data set can be described thus: Inhibition of LSD1 in human A549 cells assessed as accumulation of H3K4me2 at 8 to 16 uM after 96 hrs by Western blot analysis. The data set is classed as cell-based.
Data set [21] shares this target. The data set can be described thus: Inhibition of LSD1 in human A549 cells assessed as accumulation of H3K9me1 at 8 to 16 uM after 96 hrs by Western blot analysis. The data set is classed as cell-based.
For data set [22] the target is unchanged. The data set can be described thus: Inhibition of LSD1 in human A549 cells assessed as accumulation of H3K9me2 at 8 to 16 uM after 96 hrs by Western blot analysis. In kind it is cell-based.
Data set [23] relates to A549. The data set can be described thus: Antiproliferative activity against human A549 cells assessed as reduction in cell viability at <40 uM measured after 72 hrs by MTT based method. In kind it is functional.
Data set [24] has as its target T1, Lysine-specific histone demethylase 1A. The conditions noted are these: 1.6 uM.
Description: Irreversible inhibition of recombinant LSD1 (unknown origin) expressed in Escherichia coli BL21(DE) assessed as recovery of enzyme activity at 1.6 uM using H3K4me2 substrate incubated for 1 hr followed by 80 fold dilution by dilution assay

Activity calls are given as the source filed them. The rule behind the calls is not given here.

Description for Armoracia rusticana: Inhibition of horseradish peroxidase at 10 uM incubated for 10 mins with presence of H2O2 by absorbance based method relative to control

In the case of `CCCCCc1c(C)nc2nc(SCc3ccc(Cl)cc3)nn2c1Nc1ccc(N2CCN(C)CC2)cc1`, the IC50 – broadly, the concentration that inhibits the measured activity by half – in data set [1] is above 50 µM.
In the case of `Cc1cc(Nc2ccc(N3CCN(C)CC3)cc2)n2nc(SCc3nc4ccccc4[nH]3)nc2n1`, the result (in data set [2]; in the data set on A549 [8]) was inactive. Also, the figures for the inhibition at 1 h, 10 µM on MAO-A [3] and at MAO-B [5] were 40% and 34%, respectively. Besides, the inhibition (commonly how much of the control response was suppressed) at 1 h, 1 µM at MAO-A [4] turned out to be 13%; at MAO-B [6], 18%. The concentration for half-maximal inhibition (IC50) with A549 [7] was 23.8 µM. Besides, the result with A549 [9], in the data set with A549 [10], in the data set with A549 [11], in the data set on A549 [12] and in the data set on A549 [13] was Active. Also, the inhibition entry in the data set on Armoracia rusticana is “inactive”. In the data set with A549 [14], the inhibition entry is “Active”.
On to `c1ccc([C@@H]2C[C@H]2NC2CCNCC2)cc1`, for which the result (in [15]; in data set [16]; in the data set with A549 [9]; in the data set with A549 [10]; in the data set with A549 [11]; in the data set on A549 [12]) was Active. Also, the outcome with A549 [13] was Active. For the same compound, the result with A549 [8] and with A549 [17] was inactive.
As to `Cc1cc(Nc2ccc(N3CCN(C)CC3)cc2)n2nc(SCC3CC3)nc2n1`, the IC50 in data set [1] was above 50 µM.
In the case of `CN1CCN(c2ccc(Nc3cc(-c4ccccc4)nc4ncnn34)cc2)CC1`, the IC50 in data set [1] is above 50 µM.
Regarding `Cc1cc(Nc2ccccc2)n2nc(SCc3nc4ccccc4[nH]3)nc2n1`, the IC50 in data set [1] was above 50 µM. The result (in [2]; in data set [18]; in the data set with A549 [8]; in the data set on A549 [9]; in the data set on A549 [10]; in the data set with A549 [11]) was inactive. Also, the outcome with A549 [12], in the data set with A549 [13] and in the data set on A549 [23] was inactive. The inhibition result in data set [19], in data set [20], in data set [21] and in [22] was “inactive” throughout.
For the compound `O=C(O)c1ccc(CN2CCC(CN[C@@H]3C[C@H]3c3ccccc3)CC2)cc1`, the inhibition result in [24] is “inactive”.
Regarding `Cc1cc(Nc2ccc(N3CCN(C)CC3)cc2)n2nc(SCCCc3ccccc3)nc2n1`, the IC50 in [1] is above 50 µM.
Consider `Cc1cc(Nc2ccccc2)n2nc(SCc3ccccc3)nc2n1`, for which the IC50 in [1] is above 50 µM.
Turning to `Cc1cc(N)n2nc(SCc3ccccc3)nc2n1`, in [1], the IC50 is above 50 µM.
Turning to `CN1CCN(c2ccc(Nc3c4c(nc5ncnn35)CCC4)cc2)CC1`, the IC50 in [1] is above 50 µM.
In the case of `Cc1nc2nc(SCc3ccc(Cl)cc3)nn2c(Nc2ccc(N3CCN(C)CC3)cc2)c1C`, in data set [1], the half-maximal inhibitory concentration (IC50) was above 50 µM.
With `Cc1cc(Nc2ccc(N3CCN(C)CC3)cc2)n2nc(SCc3ccccc3[N+](=O)[O-])nc2n1`, the 50% inhibitory concentration (IC50) in [1] was above 50 µM.
